Experimental data taken from patent US20200338195A1, “PHARMACEUTICAL COMPOSITIONS COMPRISING 0.25 MG DOSE OF SYNTHETIC HUMAN PEPTIDES FOR TREATING SYSTEMIC LUPUS ERYTHEMATOSUS” (priority 2016, published 2020).
“Also recorded” adds a separate entry of the source. Like-named read-outs stand apart in the source and are kept apart here.

Assays:
subjects with active SLE = test: Low dose Edratide therapy, 26-week phase 2 dose-ranging study (Example 2); type: in vivo, human
Excerpt: The study will test about 200 study subjects, in about 50 centres. The study population will include seropositive SLE patients (presence of anti-dsDNA antibodies by FARRzyme immunoassay, titer ≥30 IU, and/or the Crithidia luciliae immunofluorescence test, and/or antinuclear antibodies (ANA) ≥1:160 or 1:80 in which case the Adjudication Committee would review the subject's data at baseline.
The total duration of the study is expected to be 34 weeks: • Screening Phase: <30 days (4 weeks) • Phase 2 double-blind treatment phase: 26 weeks (6 months) • Follow-up phase for safety: 4 weeks
Glucocorticoid dosing: It is highly recommended to initiate tapering from the baseline dose of prednisone/prednisone equivalent on or after week 4, as clinically indicated from doses ≥15 mg/day to ≥7.5 mg/day; tapering could continue until week 18. No changes in dose of prednisone/prednisone equivalent doses are allowed during weeks 19-26, the last 8 weeks of the trial. No specific tapering regimen is required, but to be determined as clinically indicated by the investigator.
Active SLE patients will be screened for up to 30 days prior to the baseline visit (visit 2). Each subject will undergo screening evaluations.
The subjects must meet the following inclusion criteria: • 1.Subjects diagnosed with SLE must have a documented medical history to meet Systemic Lupus International […] (SLICC) classification criteria for SLE, or have accumulated 4 classification criteria (1997 revised) of the American College of Rheumatology (ACR) for SLE prior to first dose. • 2. Subjects with active SLE must have: • a. At least one BILAG-A and/or two BILAG-B's, and • b. SLEDAI score of 6 or higher, excluding serology scores, and be • c. Serologically-positive as defined by 2 positive ANA or anti-dsDNA antibody test results (titer ≥30 IU by FARR radioimmunoassay and/or the Crithidia luciliae immunofluorescence test, and/or ANA 1:160 or 1:80 in which case the adjudication committee would review the subject's data) of which ≥1 test result must be obtained during screening • 3. Subjects must be ≥18 years of age • 4. SLE patients on stable SLE treatment regimen for at least three (3) months • 5. SLE patients on 15 mg of prednisone/prednisone equivalent, which have been stable for at least 14 days • 6. Subjects receiving 2 g/days of Mycophenolate mofetil (MMF) or ≤1440 mg of Myfortic • 7. Women of child-bearing potential must practice a medically acceptable method of contraception. Acceptable methods include: surgical sterilization, IUD, hormonal preparations, or double barrier method (e.g. condom or diaphragm with spermicidal) • 8. Subjects must be willing and able to give written informed consent prior to entering the study. • 9. Subjects must understand the requirements of the study and agree to comply with the study protocol.
The presence of any of the following excludes a subject from study enrollment: • i. Subjects with active Lupus nephritis as defined by a protein to creatinine ratio limit of ≥0.75 and/or active urine sediments defined as hematuria (>10 RBC/HPF) and/or RBC casts. • ii. Subjects with active central nervous system (CNS) Lupus as defined by CNS BILAG-A or BILAG-B. • iii. Subjects with active peripheral nervous system (PNS) Lupus as defined by PNS BILAG-A or BILAG-B. • iv. Subjects receiving >15 mg of glucocorticoid at baseline • v. Subjects having recently received • a. Cyclophosphamide (wash-out period 3 months), • b. Cyclosporine (wash-out period 3 months), • c. Rituximab (wash-out period at least 52 weeks provided that the CD19 count has returned to normal), or • d. Belimumab (wash-out period 6 months) • e. Any investigational drug (wash-out period 5 half-lives of elimination) […]

[1] = test system: peripheral blood lymphocytes (PBL) of SLE patients; conditions: cited from earlier work
[2] = test system: mice afflicted with spontaneous or experimental SLE; conditions: mouse, in vivo; cited from earlier work
SLE patients [3] = conditions: cited from earlier work; for incidence of adverse events (AEs), % of the subjects: placebo 75%
[4] = test system: SLE patients with stable, mild to moderate SLE disease; conditions: cited from earlier work
SLE patients [5] = test: PRELUDE Study, phase 2 placebo-controlled efficacy, tolerability and safety study of three doses of Edratide; conditions: for early withdrawal due to AE, % of subjects: placebo 2.3%; for AE incidence: 26 weeks, placebo 79.3%
Method: The total study treatment duration was 26 weeks. Scheduled visits were performed at screening, baseline and at weeks 4, 8, 12, 16, 20, 24, and 26 (termination). […] Non-compliance with the tapering down scheme was not regarded as a protocol violation. During the entire course of the study it was allowed to increase the steroid prednisolone dose to up to 60 mg. Use of intravascular/intramuscular steroid was considered a protocol violation. […] PK assessment of CAPTISOL® for all four treatment groups was conducted following the first dose and Weeks 12 and 26 doses. Disease and drug related immunology parameters were tested at baseline and at several time points thereafter.
The main inclusion criteria of this trial were: • SLEDAI 2K score of 6-12 • Stable concomitant medications (prednisone<40 mg, NSAIDs, antimalarials) for at least 1 month prior to baseline.
The co-primary end-points presented in their hierarchical order below were: • Change from baseline to last observed value (LOV) in SLEDAI 2K score (Landmark Analysis.) • Adjusted Mean SLEDAI 2K (AMS). AMS represents the time weighted average of disease activity as measured by SLEDAI 2K score [area under the curve (AUC) of SLEDAI 2K].
Secondary end-points: • BILAG proportion of responders. BILAG responders were defined as: • a. Non Responder (NR)—same BILAG score in Last Observed Value (LOV) as in baseline in all systems or new A or B in at least one system compared to baseline (other systems may improve or deteriorate). • b. Substantial Responder (SR)—all systems at LOV are either C or D/E providing that at least one system was either A or B at baseline • c. […] Mental component Score. Change from baseline to LOV • SF-36 (QoL) Physical component Score—Change from Baseline to LOV • Time Weighted Average (TWA) on cumulative steroids dose with p.o. administration.
Exploratory end-points: • Primary end-point sensitivity analysis to steroid increase (excluding the observations following steroid increase) • Proportions of Zero SLEDAI Score at LOV • Time to Zero SLEDAI Score • BILAG Total Score—Change from Baseline to LOV
Flares Analysis: • Time to medicinal flare • Time to new BILAG A or at least two new B's • Time to new BILAG A or at least two new B's (excluding persistent activity) • Steroid dose (PO)—Change from baseline to LOV • PGA—Physician's Global Assessment

With H-GYYWSWIRQPPGKGEEWIG-OH [Edratide] the “global assessment of disease activity based on MCID” value (subjects with active SLE; 0.25 mg sc every week) was “significant improvement”, the “mean Lupus-QOL relative to baseline” value (subjects with active SLE; 0.25 mg sc every week) was “significant improvement” and the “mean time to first confirmed major SLE flare” value (subjects with active SLE; 0.25 mg sc every week, Fortin definition) was “significantly increased”. The “mean time to first confirmed severe SLE flare” value (subjects with active SLE; 0.25 mg sc every week, new BILAG A or two new BILAG B) was “significantly increased”, the disease parameter/s (subjects with active SLE; 0.25 mg sc every week, specific sub-populations of SLE subjects) was “improvements of disease parameter/s; also recorded: improvement of at least one disease parameter” and the “mean glucocorticoid dose relative to baseline” value (subjects with active SLE; 0.25 mg sc every week, week 26) was “significant change”. The “proportion of subjects achieving MCID of one by SLEDAI-2K Responder Index 50” value (subjects with active SLE; 0.25 mg sc every week, week 26) was “significant proportion”, the “proportion of subjects achieving a response by composite SLE Responder Index (cSRI)” value (subjects with active SLE; 0.25 mg sc every week, week 26) was “significant proportion” and the “proportion of subjects achieving response by the SLE Responder Index” value (subjects with active SLE; 0.25 mg sc every week, week 26) was “significant proportion”. The “proportion of subjects having all organ systems either BILAG C or BILAG D/E” value (subjects with active SLE; 0.25 mg sc every week, week 26) was “significant proportion”, the “proportion of subjects with at least one BILAG A or B organ system at baseline dropping by one score without deterioration to BILAG A or B in any other system” value (subjects with active SLE; 0.25 mg sc every week, week 26, primary outcome) was “significant proportion” and the “reduction of the amount of corticosteroid therapy required to control disease activity of SLE” value (subjects with active SLE; weekly 0.25 mg dose) was “effective in enabling reduction”. The “proliferative response of PBL of SLE patients to the human anti-DNA 16/6Id mAB” value [1] was “inhibit the proliferative response”, the “disease manifestations of mice afflicted with spontaneous or experimental SLE” value [2] was “ameliorate disease manifestations” and the “change of total SLEDAI-2K score during the study” value (SLE patients [3]; single sc 0.5, 1 or 2.5 mg, any subject except one in the 0.5 mg group (2 to 10 points at Week 4)) was “No noteworthy change”. For the same substance, the “incidence of adverse events (AEs), % of the subjects” value (“incidence … % of the subjects” below) (SLE patients [3]; single sc injection 0.5 mg) was 33%, the “incidence … % of the subjects” value (SLE patients [3]; single sc injection 1 mg) was 67% and the “incidence … % of the subjects” value (SLE patients [3]; single sc injection 2.5 mg) was 80%. The “subjects with an increase in total SLEDAI-2K score of 0-3 points during the study” value ([4]; 0.5 mg group) was “Two”, the “subjects with an increase in total SLEDAI-2K score of 0-3 points during the study” value ([4]; 2.5 mg group) was 2 subjects and the “subjects reporting AEs during the 8-week follow-up period (off-drug)” value ([4]; all treatment groups) was “Approximately 50%”. The “adjusted mean SLEDAI (AMS) score, change from baseline to termination visit” value ([4]; all treatment groups, decrease = improvement) was −0.1 to −1.5 points, the “mean group total BILAG score during the study” value ([4]; any treatment group) was “No trend” and the “overall incidence of AEs between all treatment groups” value ([4]; sc twice weekly for 4 weeks, 0.5, 1 or 2.5 mg vs placebo) was “no prominent difference”. For the same substance, the “serious adverse events (SAE) throughout the study” value ([4]; sc twice weekly for 4 weeks, 0.5, 1 or 2.5 mg) was “No SAE was reported”, the “severity of injection site reactions” value ([4]; sc twice weekly for 4 weeks, all treatment groups) was “mild” and the “post hoc analysis on BILAG responders, system improved” value (SLE patients [5]; 0.5 mg Edratide) was “improvement mainly in the cutaneous system”. The “Serious Adverse Events (SAEs), % of subjects” value (SLE patients [5]; 0.5 mg Edratide (6 subjects), placebo 10.3%) was 7.1%, the “Serious Adverse Events (SAEs), % of subjects” value (SLE patients [5]; 1.0 mg dose group (10 subjects), placebo 10.3%) was 11.5% and the “Serious Adverse Events (SAEs), % of subjects” value (SLE patients [5]; 2.5 mg dose group (8 subjects), placebo 10.3%) was 9.8%. For the same substance, the “early withdrawal due to AE, % of subjects” value (SLE patients [5]; Edratide 0.5 mg (5 subjects)) was 6.0%, the “deaths during the study” value (SLE patients [5]; Edratide 0.5 mg group, most probably septic shock, classified as not related to study drug) was “One” and the AE incidence (SLE patients [5]; Edratide 0.5 mg sc) was 82.1%. For the same substance, the “BILAG substantial responders, % of subjects” value (SLE patients [5]; Edratide 0.5 mg, ITT, LOV vs baseline, placebo 22%, p=0.03) was 36%, the “subjects with a medicinal flare” value (SLE patients [5]; Edratide 0.5 mg, ITT, post hoc, n=14, placebo 29% (n=25), p=0.039) was 17% and the “medicinal flare, OR vs placebo” value (SLE patients [5]; Edratide 0.5 mg, ITT, post hoc, p=0.039) was 0.43. For the same substance, the “BILAG substantial response, odds ratio (OR) vs placebo” value (SLE patients [5]; Edratide 0.5 mg, ITT, p=0.03, not significant after multiplicity adjustment) was 2.09, the “change in the SF-36 mental score compared to placebo” value (SLE patients [5]; Edratide 0.5 mg, opposite trend for the physical score) was “slightly better” and the “early withdrawal due to AE, % of subjects” value (SLE patients [5]; Edratide 1.0 mg (3 subjects)) was 3.4%. The AE incidence (SLE patients [5]; Edratide 1 mg sc) was 77%, the “BILAG substantial responders, OR vs placebo” value (SLE patients [5]; Edratide 1 mg, p=0.07 without correction for multiple comparison) was 1.85 and the “early withdrawal due to AE, % of subjects” value (SLE patients [5]; Edratide 2.5 mg (3 subjects)) was 3.7%. The AE incidence (SLE patients [5]; Edratide 2.5 mg sc) was 75.6%, the “safety signal and dose response from the AEs analysis and additional safety data” value (SLE patients [5]; Edratide 0.5, 1 and 2.5 mg) was “no clear dose response and no significant safety signal” and the “early terminations due to AEs vs placebo” value (SLE patients [5]; Edratide vs placebo) was “more often on Edratide than on placebo”. The cSRI positive responders (SLE patients [5]; ITT, n=26, placebo 20% (n=17), p=0.058, FIG. 4) was 34%, the “BILAG non-responders, seropositive patients” value (SLE patients [5]; anti-DNA>30 IU at baseline, n=11, placebo 68% (n=21), p=0.05) was 42% and the “BILAG substantial responders, seropositive patients” value (SLE patients [5]; anti-DNA>30 IU at baseline, placebo 26%, FIG. 2C) was 46%. For the same substance, the “co-primary endpoints (change from baseline to LOV in SLEDAI 2K score; adjusted mean SLEDAI 2K) vs placebo” value (SLE patients [5]; any of the active treatment groups (0.5, 1, 2.5 mg)) was “no differences”, the “SF-36 mental or physical scores, differences between the treatment groups” value (SLE patients [5]; change from baseline to LOV) was “No clinically or statistically significant differences” and the “cumulative change in steroid dose throughout the study, differences between the treatment groups” value (SLE patients [5]; mean baseline steroids dose 9-10 mg/day of prednisolone) was “No clinically or statistically significant differences”. The “BILAG substantial responders, % of subjects” value (SLE patients [5]; no steroids at baseline, 0.5 mg Edratide, placebo 13%, p=0.05) was 54%, the “mean reduction from baseline SLEDAI-2K score” value (SLE patients [5]; overall, regardless of treatment) was “about 35%” and the SAE incidence (SLE patients [5]; pooled Edratide group, placebo 10.3%) was 9.5%. The “BILAG substantial responders, % of subjects” value (SLE patients [5]; prednisolone dose <20 mg at baseline (pooled cohort of 292 subjects), placebo 19%, p=0.007, FIG. 2B) was 40% and the “BILAG substantial response, OR vs placebo” value (SLE patients [5]; prednisolone dose <20 mg at baseline, p=0.007) was 2.75.
